The values below are quoted from earlier work in US20120058097A1, “COMPOSITIONS INCLUDING A SODIUM CHANNEL BLOCKER AND A B VITAMIN MOLECULE AND METHODS OF USE THEREOF” (MS THERAPEUTICS LIMITED, priority 2010, published 2012).

For data set [1] the following is noted: in vivo.
Data set [2] relates to people with secondary progressive multiple sclerosis.

For `Nc1nnc(-c2cccc(Cl)c2Cl)c(N)n1` [lamotrigine, 3,5-diamino-6-(2,3-dichlorophenyl)-1,2,4-triaz-ine], the half life in data set [1] was 23 to 36 h. For the same molecule, the “deterioration of walking speed” value in data set [2] (compared to the control group, 120 people with secondary progressive multiple sclerosis) is on record as “approximately halve the deterioration of walking speed”. Moreover, the “MRI measurements of brain volume” value in data set [2] (primary outcome measure, 2 year trial) was “early reduction in brain volume which was reversible over the 2 year course of the trial”.
